Data published in US20030049204A1, “Individualization of therapy with gastroesophageal reflux disease agents” (McGill University, priority 2001, published 2003).
Like-named read-outs stand apart in the source and are kept apart here. Marks after values point to notes of the source that are not given here.

Legend:
[1] = system: AAMU-Ab; assay: Competitive antigen ELISA, cross-reactivity of AAMU-Ab; type: binding, rabbit; details: 0 = absence of inhibition or inhibition no higher than 40% at highest concentration tested (5 × 10^−3 M)
Method: (§1) Four mature females New Zealand white rabbits (Charles River Canada, St-Constant, Que., Canada) are used for antibody production. The protocol employed in this study was approved by the McGill University Animal Care Committee in accordance with the guidelines from the Canadian Council on Animal Care. Antibodies of the present invention may be monoclonal or polyclonal antibodies.
(§2) A 0.5 mL aliquot of the emulsion ([…] of antigen) is injected per rabbit intramuscularly or subcutaneously. Rabbits are subsequently boosted at intervals of three weeks with […] of antigen emulsified in incomplete Freund's adjuvant. […] Antisera are stored at 4° C. in the presence of 0.01% sodium azide.
(§3) Buffers and water without additives are filtered through millipore filters and kept for 1 week. BSA, antibodies, Tween™ 20 and horse radish peroxidase conjugates are added to these buffers and water just prior to use. Urine samples are usually collected 4 hours after drinking a cup of coffee (instant or brewed with approximately 100 mg of caffeine per cup) and stored at −80° C. The urine samples are diluted 10 times with sodium phosphate buffer (620 mosm, pH 7.50) and are subsequently diluted with water to give concentrations of AAMU and 1X no higher than 3×10^−6 M in the ELISA. All the pipettings are done with an eight-channel pipette, except those of the antibody and sample solutions. Starting with the last well, 100 μL of a carbonate buffer (100 mM, pH 9.6) containing 2.5 μg mL-^1 antibodies are added to each well. After 90 min. at room temperature, the wells are washed three times with 100 mL of TPB: isotonic sodium phosphate buffer (310 mosm, pH 7.50) containing 0.05% Tween™ 20.
(§4) After the initial wash, unoccupied sites are blocked by incubation for 90 min. at room temperature with 100 μL TBP containing 3% BSA. The wells are washed four times with 100 μL TPB. […] The microplate is gently shaken with an orbital shaker at room temperature for 3-4 hours. The wells are washed three times with 100 μL TPB containing 1% BSA and three times with water containing 0.05% Tween™ 20. To the washed plate is added 150 μL of a substrate buffer composed of citric acid (25 mM) and sodium phosphate dibasic buffer (50 mM, pH 5.0) containing 0.06% hydrogen peroxide and 0.04% o-phenylenediamine hydrochloride.
as §3, with “were” for “are”, “They were” for “The urine samples are”, “mL^−1” for “mL-^1”, “was pipetted.” for “are added to each well.”, “μL” for “mL”
(§5) After the initial wash, unoccupied sites were blocked by incubation for 90 min. at room temperature with 100 μL TBP containing 3% BSA. The wells were washed four times with 100 μL TPB. […] The microplate was gently shaken with an orbital shaker at room temperature for 3-4 hours. The wells were washed three times with 100 μL with TPB containing 1% BSA and three times with water containing 0.05% Tween™ 20. To the washed plate was added 150 μL of a substrate buffer composed of citric acid (25 mM) and sodium phosphate dibasic buffer (50 mM, pH 5.0) containing 0.06% hydrogen peroxide and 0.04% o-phenylenediamine hydrochloride.

[2] = system: 1X-Ab; assay: Competitive antigen ELISA, cross-reactivity of 1X-Ab; type: binding, rabbit; details: 0 = absence of inhibition or inhibition no higher than 40% at highest concentration tested (5 × 10^−3 M)
Method: as §1, §2, §3, §4
as §3, with “were” for “are”, “They were” for “The urine samples are”, “mL^−1” for “mL-^1”, “was pipetted.” for “are added to each well.”, “μL” for “mL”
as §5

[3] = cited from earlier work
[4] = system: plasma proteins, mainly albumin; details: cited from earlier work
[5] = especially less severe degrees of esophagitis; cited from earlier work
[6] = target: serotonin-4 (5-HT4) receptor (Homo sapiens, UniProt Q13639); details: in vitro; cited from earlier work
[7] = target: T1, rapid component of the delayed rectifying K^+ current (lkr) (Oryctolagus cuniculus, UniProt Q8WNY2); details: in vivo anesthetized guinea pig and rabbit; in vitro isolated rabbit preparations; cited from earlier work
T1 construct: in vitro isolated rabbit Purkinje fibers and ventricular papillary muscle and isolated rabbit ventricular myocyte models; from tissue; host or cells: rabbit Purkinje fibers, ventricular papillary muscle and ventricular myocytes; also anesthetized guinea pig and rabbit in vivo
T1 sequence (Q8WNY2 1-1161): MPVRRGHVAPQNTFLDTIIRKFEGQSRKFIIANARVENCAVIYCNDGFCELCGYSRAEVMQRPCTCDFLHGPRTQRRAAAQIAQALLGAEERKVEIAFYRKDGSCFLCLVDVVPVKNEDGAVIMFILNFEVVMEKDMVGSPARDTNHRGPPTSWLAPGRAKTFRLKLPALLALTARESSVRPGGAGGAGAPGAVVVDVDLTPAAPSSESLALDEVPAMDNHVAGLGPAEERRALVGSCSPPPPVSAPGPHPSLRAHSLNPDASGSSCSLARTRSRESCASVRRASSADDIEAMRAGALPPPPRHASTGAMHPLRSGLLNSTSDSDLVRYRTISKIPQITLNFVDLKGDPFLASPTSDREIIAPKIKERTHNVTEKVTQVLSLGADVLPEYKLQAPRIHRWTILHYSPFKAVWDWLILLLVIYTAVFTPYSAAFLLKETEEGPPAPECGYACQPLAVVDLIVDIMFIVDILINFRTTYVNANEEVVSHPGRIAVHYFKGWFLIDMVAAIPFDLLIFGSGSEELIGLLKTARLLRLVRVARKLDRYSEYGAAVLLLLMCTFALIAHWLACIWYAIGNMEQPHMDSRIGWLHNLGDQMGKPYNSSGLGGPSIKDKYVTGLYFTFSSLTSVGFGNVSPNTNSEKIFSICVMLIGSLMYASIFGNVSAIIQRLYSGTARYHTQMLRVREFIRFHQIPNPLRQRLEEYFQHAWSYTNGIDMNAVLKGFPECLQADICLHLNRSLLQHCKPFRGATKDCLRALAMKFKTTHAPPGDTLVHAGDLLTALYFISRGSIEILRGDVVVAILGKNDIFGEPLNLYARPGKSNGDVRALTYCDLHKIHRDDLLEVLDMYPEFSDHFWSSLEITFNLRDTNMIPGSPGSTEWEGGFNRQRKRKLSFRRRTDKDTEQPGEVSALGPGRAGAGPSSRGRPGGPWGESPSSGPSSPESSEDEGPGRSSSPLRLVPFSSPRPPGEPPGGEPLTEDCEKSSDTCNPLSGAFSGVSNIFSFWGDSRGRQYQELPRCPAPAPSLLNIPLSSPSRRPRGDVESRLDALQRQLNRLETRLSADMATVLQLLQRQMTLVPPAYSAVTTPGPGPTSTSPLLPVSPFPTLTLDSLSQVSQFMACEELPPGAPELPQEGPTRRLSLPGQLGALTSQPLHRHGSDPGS

[8] = in vivo; cited from earlier work
[9] = cited from earlier work; remark: listed apart in the source

serotonin-4 (5-HT4) receptor, sequence (Q13639 whole entry, species assumed): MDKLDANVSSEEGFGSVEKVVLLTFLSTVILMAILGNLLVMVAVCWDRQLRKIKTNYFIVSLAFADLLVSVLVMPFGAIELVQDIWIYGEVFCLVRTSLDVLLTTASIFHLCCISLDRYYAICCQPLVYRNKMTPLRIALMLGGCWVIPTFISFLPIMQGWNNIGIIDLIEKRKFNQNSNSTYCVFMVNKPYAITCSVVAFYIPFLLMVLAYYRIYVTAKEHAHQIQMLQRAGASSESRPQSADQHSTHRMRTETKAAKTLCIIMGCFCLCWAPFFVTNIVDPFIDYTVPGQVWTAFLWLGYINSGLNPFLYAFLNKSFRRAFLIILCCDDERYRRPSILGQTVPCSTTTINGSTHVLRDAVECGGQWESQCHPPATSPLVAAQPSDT

Structure (SMILES)	% Cross-Reaction AAMU-Ab [1]	% Cross-Reaction 1X-Ab [2] [%]	also measured
Cn1cnc2c1c(=O)[nH]c(=O)n2C [3,7-Dimethyl Xanthine (Theobromine), 3,7-Dimethyl Xanthine]	0%	0	–
O=c1[nH]c(=O)c2[nH]c(=O)[nH]c2[nH]1 [Uric acid]	0%	0	–
Cn1c(=O)[nH]c2[nH]c(=O)n(C)c2c1=O [1,7-Dimethyluric acid]	0%	0	–
COc1cc(N)c(Cl)cc1C(=O)NC1CCN(CCCOc2ccc(F)cc2)CC1OC (centres unmarked) [Cisapride]	–	–	half-life ([3]; following intravenous (IV) administration): up to 20 hours; absolute bioavailability ([3]; in vivo): 35-40%; plasma clearance ([3]; in vivo): about 100 ml/min; volume of distribution ([3]; in vivo): about 180 L; unmetabolized drug accounted for in urinary and fecal recovery ([3]; oral administration): less than 10%; binding to plasma proteins [4]: 97.5-98%; long-term control of GERD, individuals [5]: up to 50%; activity at serotonin-4 (5-HT4) receptor [6]: receptor agonist; effect on cardiac repolarization [7]: prolonged cardiac repolarization without slowing conduction; deaths among reports of heart rhythm abnormalities [8]: 80; diarrhea, individuals affected [8]: about 10%; reports of heart rhythm abnormalities [8]: at least 341
Cn1c(=O)[nH]c2nc[nH]c2c1=O [1-Methyl Xanthine (1X), 1-Methyl Xanthine]	0%	100	–
Nc1ccc(S(=O)(=O)c2ccc(N)cc2)cc1 [dapsone]	–	–	adverse reactions ([9]; fast acetylators): 17%; adverse reactions ([9]; slow acetylators): 46%
O=c1[nH]cnc2nc[nH]c12 [Hypoxanthine]	0%	0	–
Cc1nc2[nH]c(=O)[nH]c(=O)c2[nH]1 [8-Methyl Xanthine]	0%	0	–
Cn1cnc2[nH]c(=O)[nH]c(=O)c21 [7-Methyl Xanthine]	0%	0	–
Cn1c(=O)c2c(ncn2C)n(C)c1=O [1,3,7-Trimethyl Xanthine (Caffeine), 1,3,7-Trimethyl Xanthine]	0%	0	–
Cn1c(=O)[nH]c2ncn(C)c2c1=O [1,7-Dimethyl Xanthine (Paraxanthine), 1,7-Dimethyl Xanthine]	0%	0.5	–
O=c1[nH]c(=O)c2[nH]cnc2[nH]1 [Xanthine]	0^a %	0	–
Cn1c(=O)[nH]c2[nH]c(=O)[nH]c2c1=O [1-Methyluric acid]	0%	11	–
Nc1nc2nc[nH]c2c(=O)[nH]1 [Guanine]	0%	0	–
CC(=O)Nc1c(N)n(C)c(=O)n(C)c1=O [5-Acetamino-6-amino-1,3-dimethyluracil]	0%	0	–
Cn1c(=O)[nH]c(=O)c2[nH]cnc21 [3-Methyl Xanthine]	0%	0	–
O=c1cc[nH]c(=O)[nH]1 [Uracil]	0%	0	–
Cn1c(=O)c2[nH]cnc2n(C)c1=O [1,3-Dimethyl Xanthine (Theophylline), 1,3-Dimethyl Xanthine]	0%	0.2	–
CC(=O)Nc1c(N)n(C)c(=O)[nH]c1=O [5-Acetamino-6-amino-1-methyluracil]	100%	0	–
CC(=O)Nc1c(N)[nH]c(=O)[nH]c1=O [5-Acetamino-6-amino-uracil]	0.6%	0	–
